Where two headings read alike, the source gives them in different places.
Legend:
[1] = system: 661W cells expressing CNGA3 plus CNGB3 T383fsX; details: for relative cytotoxicity (LDH release, normalized to untreated vector-only control): 24 h
Method: (§1) The mouse photoreceptor 661W cell line used in this study was generously provided by Dr. Al-Ubaidi (University of Oklahoma Health Sciences Center, Oklahoma City, OK). The 661W cells were routinely maintained in Dulbecco’s modified Eagle’s medium (Gibco, Carlsbad, CA), supplemented with 10% fetal bovine serum (Gemini Bioproducts, Sacramento, CA) and 1% penicillin/streptomycin (Gibco), at 37 °C in a humidified incubator with 5% CO2; cells were subcultured every 3–5 days. The 661W cells were transfected with pOPRSVI plasmids encoding human cone CNG channel subunits using Lipofectamine™ 2000 and OptiMEM (Life Technologies, Carlsbad, CA) according to the manufacturer’s protocol for cells in suspension. A reporter plasmid—a green fluorescent protein-expressing vector (pQBI25-fC2, Wako Pure Chemical Industries, Ltd., Japan) using a constitutive CMV promoter—was transfected under the same conditions to assess transfection efficiency. […] In addition, the pOPRSVI plasmid was transfected alone as a negative control. The amounts of each vector were as follows (µg/10 cm^2 culture surface): 2 FLAG- or GFP-CNGA3 plus 2 FLAG-CNGB3 (WT, T383fsX or F525N); 4 GFP; or 4 pOPRSVI.
(§2) For most experiments, the LDH Cytotoxicity Detection Kit (Roche Applied Science) was used according to the manufacturer’s protocol (see also [37]). Briefly, cultured 661W cells were transfected with the desired plasmid constructs as described above and then plated in 96-well tissue culture plates at a density of approximately 8×10^3 cells/well. Forty-eight hours after transfection, cells were treated with various concentrations of CPT-cGMP and/or CPT-cAMP (Sigma-Aldrich) alone or together with L-cis-diltiazem (Enzo Life Sciences, Inc., Farmingdale, NY) in Dulbecco’s modified Eagle’s medium supplemented with 1% fetal bovine serum for 24 h at 37 °C. Following treatment, half of the culture medium was transferred to another 96-well plate and the LDH released into the culture medium was measured to assess the number of damaged/dead cells. Cells in the original plate were then lysed and the total amount of cellular LDH was assessed. The percentage cytotoxicity was then calculated from the ratio of LDH concentration in the medium/cells, and was normalized to the percentage cytotoxicity in untreated cells transfected with control pOPRSVI plasmid only.

[2] = system: 661W cells expressing CNGA3 plus CNGB3 F525N; details: 24 h
Method: as §1, §2

[3] = system: 661W cells expressing CNG channels with the F525N mutation; test: LIVE/DEAD Viability/Cytotoxicity Kit staining, cells expressing F525N; type: cell-based, mouse; details: 0.1 µM CPT-cGMP, 24 h; compared to WT-expressing or untreated F525N-expressing cells
Method: The viability of 661W cells transfected with WT or mutant CNG channels was also assessed using the LIVE⁄DEAD® Viability⁄Cytotoxicity Kit (Life Technologies) according to the manufacturer’s protocol. Briefly, cells were transfected under the conditions described above and plated into 4-well multi-chamber Lab-Tek glass slides (Nalge Nunc International, Rochester, NY). At the end of cyclic nucleotide treatment, cells were washed with PBS three times and stained with 2 μM calcein AM and 4 μM ethidium homodimer-1 solution at room temperature for 30 min. Fluorescence microscopy was then performed to visualize the live and dead cells. Imaging of cells was performed at the Washington State University Franceschi Microscopy and Imaging Center. Images were obtained using a 10× objective on an Axiovert 200M inverted microscope equipped with a Zeiss LSM 510 confocal laser-scanning system and a krypton-argon laser. Fluorescence was measured using an excitation wavelength of 488 nm, and a 522 DF 32 emission filter for green fluorescence and 635 DF 32 emission filter for red fluorescence.

[4] = 10 µM CPT-cAMP combined with 0.1 µM CPT-cGMP

| Structure (SMILES) | relative cytotoxicity (LDH release, normalized to untreated vector-only control) [1, 4] | effect on relative cytotoxicity compared to CPT-cGMP treatment alone ([1]; various concentrations of CPT-cAMP coapplied with 0.1 µM CPT-cGMP) | relative cytotoxicity (LDH release, normalized to untreated vector-only control) ([2]; 1 µM CPT-cAMP coapplied with 0.1 µM CPT-cGMP) | relative cytotoxicity (LDH release, normalized to untreated vector-only control) [2, 4] | damaged/dead and intact/viable cells (calcein AM / ethidium homodimer-1 fluorescence) [3] | relative cytotoxicity (LDH release, normalized to untreated vector-only control) ([1]; 0.1 µM CPT-cGMP) | relative cytotoxicity (LDH release, normalized to untreated vector-only control) ([2]; 0.1 µM CPT-cGMP alone) |
| --- | --- | --- | --- | --- | --- | --- | --- |
| Nc1ncnc2c1nc(Sc1ccc(Cl)cc1)n2[C@@H]1O[C@@H]2COP(=O)(O)O[C@H]2[C@H]1O [CPT-cAMP, CPT-adenosine 3′,5′-cyclic monophosphate] | 1.30±0.05 | unaltered | 1.31±0.06 | 1.67±0.08 |  |  |  |
| Nc1nc2c(nc(Sc3ccc(Cl)cc3)n2[C@@H]2O[C@@H]3COP(=O)(O)O[C@H]3[C@H]2O)c(=O)[nH]1 [CPT-cGMP, 8-(4-chlorophenylthio) guanosine 3′,5′-cyclic monophosphate] |  |  |  |  | more damaged/dead cells (red fluorescence) and less intact/viable cells | 1.26±0.05 | 1.59±0.05 |

Source: paper PMC3692405, “Disease-associated mutations in CNGB3 promote cytotoxicity in photoreceptor-derived cells” (Molecular Vision, 2013)
